Measurements: patent US8017612B2, “Piperazine compound and use thereof as a HCV polymerase inhibitor” (priority 2006, dated 2011)

What was measured:
[1] = biological target: T1, HCV polymerase (NS5B) type 1b (Hepatitis C virus genotype 1b, UniProt P26663); assay: Assay of enzyme (HCV polymerase) inhibitory activity, type 1b enzyme; format: biochemical, HCV BK strain (type 1b)
T1 construct: a region encoding NS5B (J Virol 1991 March, 65(3), 1105-13, 544 amino acids after deletion of 47 amino acids on the C-terminal); 6xHis (C); made in house; host or cells: Escherichia coli
In short: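 Rxn: NS5B 1b (BK, ΔC47, His6) 0.5 μg/ml; substrate RNA 5 μg/ml; ATP/GTP/CTP 50 μM, UTP 2 μM + [5,6-3H]UTP; 20 mM Tris pH 7.5, 5 mM MgCl2, 50 mM NaCl, 1 mM EDTA/DTT. 25 °C, 60 min. Stop with TCA/pyrophosphate, filter, scintillation count; IC50 vs. untreated.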

[2] = biological target: T2, HCV polymerase (NS5B) type 1a (Hepatitis C virus genotype 1a, UniProt P26664); assay: Assay of enzyme (HCV polymerase) inhibitory activity, type 1a enzyme; format: biochemical, HCV type 1a (cloned from the blood of patients)
T2 construct: made in house; host or cells: Escherichia coli (by the 'similar method' of the 1b enzyme)
In short: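 NS5B Δ47 C-term His6 (type 1a, 1.5 μg/ml); substrate RNA 5 μg/ml; ATP/GTP/CTP 50 μM, UTP 2 μM + [5,6-3H]UTP; Tris pH 7.5, MgCl2 5 mM; 25° C, 60 min. TCA/pyrophosphate stop, GF/B filter, scintillation. IC50 vs no-compound control.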

[3] = HCV polymerase inhibitory activity (IC50), 1b, type 1b enzyme 0.5 μg/ml, 25° C., 60 min
[4] = HCV polymerase inhibitory activity (IC50), 1a, type 1a enzyme 1.5 μg/ml, 25° C., 60 min
[5] = HCV polymerase inhibitory activity IC50, 1b, type 1b enzyme
[6] = HCV polymerase inhibitory activity IC50, 1a, type 1a enzyme

Compound | IC50 [1, 3] | IC50 [2, 4] | IC50 [1, 5] | IC50 [2, 6]
CC(C)c1ccc(CNC(=O)[C@H]2CN(C(=O)Cc3ccncc3)CCN2S(=O)(=O)c2ccc(C(F)(F)F)cc2)cc1 [Example 2, (R)-4-(2-pyridin-4-yl-acetyl)-1-(4-trifluoromethyl-benzenesulfonyl)-piperazine-2-carboxylic acid 4-isopropyl-benzylamide] | 100 to 1000 nM | 100 to 1000 nM | – | –
COC(=O)c1cnc(N2CCN(S(=O)(=O)c3ccc(C(F)(F)F)cc3)[C@@H](C(=O)NCc3ccc(C(C)C)cc3)C2)nc1C [Example 337, 2-[(R)-3-(4-isopropyl-benzylcarbamoyl)-4-(4-trifluoromethyl-benzenesulfonyl)-piperazin-1-yl]-4-methyl-pyrimidine-5-carboxylic acid methyl ester] | 100 to 1000 nM | > 1000 nM | – | –
O=C(NCc1ccc(S(F)(F)(F)(F)F)cc1)[C@H]1CN(c2nc3ncncc3s2)CCN1S(=O)(=O)c1ccc(OC(F)(F)F)cc1 [Example 996, (R)-4-thiazolo[4,5-d]pyrimidin-2-yl-1-(4-trifluoromethoxy-benzenesulfonyl)-piperazine-2-carboxylic acid 4-pentafluorosulfanyl-benzylamide] | – | – | < 100 nM | < 100 nM
Cc1nc(N2CCN(S(=O)(=O)c3ccc(OC(F)(F)F)cc3)[C@@H](C(=O)NCc3ccc(N4CCCC4)cc3)C2)sc1C(=O)O [Example 416, 4-methyl-2-[(R)-3-(4-pyrrolidin-1-yl-benzylcarbamoyl)-4-(4-trifluoromethoxy-benzenesulfonyl)-piperazin-1-yl]-thiazole-5-carboxylic acid] | < 100 nM | 100 to 1000 nM | – | –
O=C(NCc1ccc(OC(F)(F)F)cc1)[C@H]1CN(c2nc3nc[nH]c(=O)c3s2)CCN1S(=O)(=O)c1ccc(OC(F)(F)F)cc1 [Example 784, (R)-4-(7-oxo-6,7-dihydro-thiazolo[4,5-d]pyrimidin-2-yl)-1-(4-trifluoromethoxy-benzenesulfonyl)-piperazine-2-carboxylic acid 4-trifluoromethoxy-benzylamide] | – | – | < 100 nM | < 100 nM
CC(=O)N1CCN(S(=O)(=O)c2ccc(C(C)C)cc2)[C@@H](C(=O)NCc2ccc(C(F)(F)F)cc2)C1 [Example 1116, (R)-4-acetyl-1-(4-isopropyl-benzenesulfonyl)-piperazine-2-carboxylic acid 4-trifluoromethyl-benzylamide] | – | – | 100 to 1000 nM | 100 to 1000 nM
O=C(NCc1ccc(OC(F)(F)F)cc1)[C@H]1CN(c2nc3nc(C4(O)CC4)ncc3s2)CCN1S(=O)(=O)c1ccc(OC(F)(F)F)cc1 [Example 1080, (R)-4-[5-(1-hydroxy-cyclopropyl)-thiazolo[4,5-d]pyrimidin-2-yl]-1-(4-trifluoromethoxy-benzenesulfonyl)-piperazine-2-carboxylic acid 4-trifluoromethoxy-benzylamide] | – | – | < 100 nM | < 100 nM
CCC(F)(F)c1ccc(CNC(=O)[C@H]2CN(c3cnc4cc(C(=O)O)ccc4n3)CCN2S(=O)(=O)c2ccc(OC(F)(F)F)cc2)cc1 [Example 712, 2-[(R)-3-[4-(1,1-difluoro-propyl)-benzylcarbamoyl]-4-(4-trifluoromethoxy-benzenesulfonyl)-piperazin-1-yl]-quinoxaline-6-carboxylic acid] | – | – | < 100 nM | < 100 nM
COC(=O)CCc1cc(S(=O)(=O)N2CCN(C(C)=O)C[C@@H]2C(=O)NCc2ccc(C(C)C)cc2)ccc1OC [Example 218, 3-{5-[(R)-4-acetyl-2-(4-isopropyl-benzylcarbamoyl)-piperazine-1-sulfonyl]-2-methoxy-phenyl}-propionic acid methyl ester] | 100 to 1000 nM | 100 to 1000 nM | – | –
CN(C)c1ccc(CNC(=O)C2CN(C(=O)Cc3cccnc3)CCN2S(=O)(=O)c2ccc(I)cc2)cc1 (centres unmarked) [Example 154, 1-(4-iodo-benzenesulfonyl)-4-(2-pyridin-3-yl-acetyl)-piperazine-2-carboxylic acid 4-dimethylamino-benzylamide] | 100 to 1000 nM | 100 to 1000 nM | – | –
O=C(O)c1cccc2nc(N3CCN(S(=O)(=O)c4ccc(OC(F)(F)F)cc4)[C@@H](C(=O)NCc4ccc(OC(F)(F)F)cc4)C3)cnc12 [Example 780, 2-[(R)-4-(4-trifluoromethoxy-benzenesulfonyl)-3-(4-trifluoromethoxy-benzylcarbamoyl)-piperazin-1-yl]-quinoxaline-5-carboxylic acid] | – | – | < 100 nM | 100 to 1000 nM
CCCc1ccc(CNC(=O)[C@H]2CN(c3cnc(N)cn3)CCN2S(=O)(=O)c2ccc(OC(F)(F)F)cc2)cc1 [Example 530, (R)-5′-amino-4-(4-trifluoromethoxy-benzenesulfonyl)-3,4,5,6-tetrahydro-2H-[1,2′]bipyrazinyl-3-carboxylic acid 4-propyl-benzylamide] | < 100 nM | 100 to 1000 nM | – | –
CCCc1ccc(CNC(=O)[C@H]2CN(c3nc4cc(C(=O)OC(C)(C)C)ncc4s3)CCN2S(=O)(=O)c2ccc(OC(F)(F)F)cc2)cc1 [Example 1081, 2-[(R)-3-(4-propyl-benzylcarbamoyl)-4-(4-trifluoromethoxy-benzenesulfonyl)-piperazin-1-yl]-thiazolo[5,4-c]pyridine-6-carboxylic acid tert-butyl ester] | – | – | < 100 nM | < 100 nM
CC(C)c1ccc(CNC(=O)[C@H]2CN(c3nc(CCC(=O)O)cs3)CCN2S(=O)(=O)c2ccc(OC(F)(F)F)cc2)cc1 [Example 382, 3-{2-[(R)-3-(4-isopropyl-benzylcarbamoyl)-4-(4-trifluoromethoxy-benzenesulfonyl)-piperazin-1-yl]-thiazol-4-yl}-propionic acid] | 100 to 1000 nM | 100 to 1000 nM | – | –
CC(=O)N1CCN(S(=O)(=O)c2ccc(C(C)C)cc2)C(C(=O)NCc2ccc(C(F)(F)F)nc2)C1 (centres unmarked) [Example 151, 4-acetyl-1-(4-isopropyl-benzenesulfonyl)-piperazine-2-carboxylic acid (6-trifluoromethyl-pyridin-3-ylmethyl)-amide] | > 1000 nM | > 1000 nM | – | –
CCC(F)(F)c1ccc(CNC(=O)[C@H]2CN(c3cnc4cnccc4n3)CCN2S(=O)(=O)c2ccc(C(F)(F)F)cc2)cc1 [Example 735, (R)-4-pyrido[3,4-b]pyrazin-2-yl-1-(4-trifluoromethyl-benzenesulfonyl)-piperazine-2-carboxylic acid 4-(1,1-difluoro-propyl)-benzylamide] | – | – | < 100 nM | < 100 nM
CC(C)c1ccc(CNC(=O)[C@H]2CN(C(=O)CNC(=O)CCC(=O)O)CCN2S(=O)(=O)c2ccc(C(F)(F)F)cc2)cc1 [Example 274, N-{2-[(R)-3-(4-isopropyl-benzylcarbamoyl)-4-(4-trifluoromethyl-benzenesulfonyl)-piperazin-1-yl]-2-oxo-ethyl}-succinamic acid] | 100 to 1000 nM | > 1000 nM | – | –
CC(=O)N1CCN(S(=O)(=O)c2ccc(C(C)C)cc2)C(C(=O)NCc2ccc(C(C)C)cc2)C1 (centres unmarked) [Example 117, 4-acetyl-1-(4-isopropyl-benzenesulfonyl)-piperazine-2-carboxylic acid 4-isopropyl-benzylamide] | 100 to 1000 nM | 100 to 1000 nM | – | –
COc1cccc(CNC(=O)[C@H]2CN(C(C)=O)CCN2S(=O)(=O)c2ccc(OC(F)(F)F)cc2)c1 [Example 636, (R)-4-acetyl-1-(4-trifluoromethoxy-benzenesulfonyl)-piperazine-2-carboxylic acid 3-methoxy-benzylamide] | > 1000 nM | > 1000 nM | – | –
